pEC50: −log10 of the molar value. Where two headings read alike, the source gives them in different places. Non-standard residues stand in square brackets, D forms with d. Residues, ends and D or L forms follow the SMILES beside them. No end group written: not given here. d2Nal = N[C@H](Cc1ccc2ccccc2c1)C(=O)O; αMeF = C[C@](N)(Cc1ccccc1)C(=O)O
Assays:
[1] = tested on: caspase-3 and PARP cleavage; test: Western blot of caspase-3 activation and PARP cleavage in U87-MG, SHP-77 and H4 cells; format: cell-based, human; conditions: 24 h
Description: To verify whether the cytotoxic effects of the new B1R antagonists are mediated by apoptosis, the activation level of caspase-3, a key enzyme in the apoptosis process, and PARP protein, the caspase-3 substrate, were determined by Western blot analysis.
Cisplatin at 25 µM was used to induce control apoptosis. No significant change in the amount of cleaved PARP or caspase-3 activation was observed after B1R antagonist treatment compared with untreated cells (Fig. 5).
Figure 5 The effects of B1R antagonists and cisplatin on the expression levels of caspase-3 and PARP cleavage in cell lines U87-MG, SHP-77, and H4 were determined by Western blotting. 1. control cells; 2. cisplatin (25 μM); 3. […] BK11 (50 μM). […] Representative Western blot images showing expression of β-actin were used as a reference protein. Each picture represents a vertically cut part of nitrocellulose membranes. The membranes were cut before antibody application, considering the size margin according to the size of the molecular weight marker.
Western blot analysis was performed to evaluate the potential mechanism of cytotoxic activity of the antagonists of BK in cancer cell lines H4, U87-MG, and SHP-77 (see Supporting Information for details). Detection was performed using Pierce ECL Western blotting substrate (Thermo Fisher Scientific) and a Syngene GeneGnomeXRQ chemiluminescence analysis system. […]

H4 cells = test: MTT cytotoxicity assay, H4 cells; format: cell-based, human; conditions: 24 h treatment, mean ± SEM, n = 3 wells per experiment, 2–3 independent experiments
Description: (§1) Cisplatin, a cytostatic drug commonly used for cancer chemotherapy, was used as a reference compound.
(§2) The colorimetric tetrazolium salt assay with 3-([…]-2-yl)-2,5-diphenyltetrazolium bromide (MTT) was used to evaluate the cytotoxicity potential of the antagonists BK in the cancer cell lines H4, U87-MG, and SHP-77 (see Supporting Information for details)[52].
(§3) Cell lines were seeded at a concentration of 5000 cells/well (H4) and 10000 cells/well (U87-MG, SHP-77) in 96-well plates and incubated for 24 hours. […] These compounds were dissolved in redistilled water and added to the cultures at a final concentration of 0.1%. Twenty-four hours after treatment with the drugs, the MTT assay was performed according to the procedure described previously.^52 MTT solution was added to each well (at a final concentration of 0.15 mg/mL) and then incubated at 37°C for 30 minutes. Formosan crystals were resolved and measured at 570 nm using a 96-well microplate reader (Thermo Lab system Multiscan Spectrum). […] Data were analyzed using GraphPad Prism 7.04 software. Statistical differences were calculated using a one-way analysis of variance (ANOVA) followed by Tukey’s posthoc test. Values of p < 0.05 were considered significant.

SHP-77 cells = test: MTT cytotoxicity assay, SHP-77 cells; format: cell-based, human; conditions: 24 h treatment, mean ± SEM, n = 3 wells per experiment, 2–3 independent experiments
Description: as §1, §2, §3

U87-MG cells = test: MTT cytotoxicity assay, U87-MG cells; format: cell-based, human; conditions: 24 h treatment, mean ± SEM, n = 3 wells per experiment, 2–3 independent experiments
Description: as §1, §2, §3

B1R = target: T1, B1R (Homo sapiens, UniProt P46663); test: IP-one (intracellular IP1) assay in T-REx 293/B1R cell line; format: cell-based
T1 construct: Thermo Fisher Scientific (T-REx 293 cells)
T1 sequence (P46663 1-353): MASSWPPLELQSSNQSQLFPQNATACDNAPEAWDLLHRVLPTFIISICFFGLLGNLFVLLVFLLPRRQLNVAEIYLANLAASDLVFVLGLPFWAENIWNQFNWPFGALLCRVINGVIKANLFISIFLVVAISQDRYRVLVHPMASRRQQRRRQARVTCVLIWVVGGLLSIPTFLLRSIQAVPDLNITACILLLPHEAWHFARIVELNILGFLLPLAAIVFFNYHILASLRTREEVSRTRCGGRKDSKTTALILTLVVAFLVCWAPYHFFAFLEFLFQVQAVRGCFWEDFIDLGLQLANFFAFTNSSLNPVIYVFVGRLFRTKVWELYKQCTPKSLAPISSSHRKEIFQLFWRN
Description: Cell culture and transfection.
(§4) The cell pellet was suspended in Hanks-HEPES (130 mM NaCl, 5.4 mM KCl, 1.8 mM CaCl2, 0.8 mM MgSO4, 0.9 mM NaH2PO4, 20 mM HEPES, LiCl 50 mM, and 3.25 mM glucose; pH 7.4).
Data were analyzed using GraphPad Prism version 5.04 for Windows (GraphPad software).

B1R in SHP-77 cell line = test: Functional assay: shift of BK dose-response curve by B1R antagonist, SHP-77 cells; format: cell-based, human; conditions: antagonist 10 µM
Description: (§5) In further experiments, the U87-MG, SHP-77, and H4 cell lines were used for the functional assay with BK and the reference B1R antagonist. As shown in Fig. 13S in Supplementary File, all three cell lines expressed the functional B1R protein and its activity according to the mRNA level shown in Fig. 4. The obtained results are consistent with previous findings showing the expression of functional B1R and B2R genes and proteins in human glioblastoma cells U87-MG[32],[33]. In other studies, cellular expression of B1 and B2 receptors was detected in five different subtypes of human lung carcinomas (adenocarcinoma, squamous cell carcinoma, large cell carcinoma, small cell carcinoma, and carcinoid tumors)[34]. In addition, B2R has also been characterized in the cell line SHP-77[35]. However, to our knowledge, this is the first time that we have detected B1R and B2R gene expression in H4 cells of human brain neuroglioma and B1R in SHP-77 cells of human lung carcinoma.
(§6) Figure 13S. […] All three cell lines expressed the functional protein B1R.

B1R in H4 cell line = test: Functional assay: shift of BK dose-response curve by B1R antagonist, H4 cells; format: cell-based, human; conditions: antagonist 10 µM
Description: as §5, §6

B1R in U87-MG cell line = test: Functional assay: shift of BK dose-response curve by B1R antagonist, U87-MG cells; format: cell-based, human; conditions: antagonist 10 µM
Description: as §5, §6

mock T-REx 293 cell line = test: IP1 assay in mock T-REx 293 cells without transfection of bradykinin receptors; format: cell-based, human; conditions: various doses of BK
Description: as §4

Molecule | MTT, percentage of control, H4 (H4 cells; 25 µM) | MTT, percentage of control, H4 (H4 cells; 100 µM) | MTT, percentage of control, SHP-77 (SHP-77 cells; 25 µM) | MTT, percentage of control, SHP-77 (SHP-77 cells; 100 µM) | MTT, percentage of control, U87-MG (U87-MG cells; 25 µM) | MTT, percentage of control, U87-MG (U87-MG cells; 100 µM) | further results
N.N.[Cl][Pt][Cl] [Cisplatin] | 25.389 ± 3.71 % of control | 5.809 ± 1.488 % of control | 53.631 ± 12.052 % of control | 37.989 ± 11.626 % of control | 50.357 ± 4.97 % of control | 32.63 ± 6.934 % of control | caspase-3 activation and PARP cleavage (Western blot) ([1]; 25 μM, positive control of apoptosis): induction of caspase-3 and processed PARP fragments
N=C(N)NCCC[C@H](NC(=O)[C@H](Cc1cccs1)NC(=O)[C@H]1CCCCN1C(=O)[C@H](CO)NC(=O)[C@H](Cc1cccs1)NC(=O)CNC(=O)[C@@H]1C[C@@H](O)CN1C(=O)[C@@H]1CCCN1C(=O)[C@H](CCCNC(=N)N)NC(=O)[C@@H](CCCNC(=N)N)NC(=O)CC12CC3CC(CC(C3)C1)C2)C(=O)O [BK11] | 94.235 ± 3.538 % of control | 65.668 ± 3.305 % of control | 96.421 ± 3.474 % of control | 85.391 ± 5.646 % of control | 96.125 ± 1.241 % of control | 81.07 ± 4.542 % of control | B1R screening, effect in the presence of BK (antagonist mode) (B1R; T-REx 293/B1R cells, 25 μM analog with BK at EC80): antagonistic effect; caspase-3 activation and PARP cleavage (Western blot) ([1]; 50 μM, compared with untreated control cells): no induction of caspase-3 and PARP
RPPGFSPFR [BK, Bradykinin] |  |  |  |  |  |  | pEC50 (B1R): 5.88
CC[C@H](C)[C@H](NC(=O)[C@@H](Cc1ccc2ccccc2c1)NC(=O)[C@H](CO)NC(=O)[C@](C)(Cc1ccccc1)NC(=O)CNC(=O)[C@@H]1CCCN1C(=O)[C@@H]1CCCN1C(=O)[C@H](CCCNC(=N)N)NC(=O)[C@H](CCCCN)NC(C)=O)C(=O)O [R 892] (Ac-KRPPG[αMeF]S[d2Nal]I-OH; N-terminus and C-terminus assumed) |  |  |  |  |  |  | pEC50 (B1R; T-REx 293/B1R cells, in the presence of EC80 BK (1250 nM), SD ± 66 nM, read-out: EC50 value for decrease of IP1 levels (B1R antagonist)): 7.16; shift of BK EC50 after treatment with the B1R antagonist (B1R in SHP-77 cell line): 2,5 x; shift of BK EC50 after treatment with the B1R antagonist (B1R in H4 cell line): < 2 x; shift of BK EC50 after treatment with the B1R antagonist (B1R in U87-MG cell line): over 3 times
RPPGFSPFR-OH [BK, Bradykinin] |  |  |  |  |  |  | response in IP1 assay, mock cells (mock T-REx 293 cell line): did not respond

Source: article PMC9643506 (Scientific Reports, 2022)
